Measured values from patent US12447170B2, “Use of maribavir in treatment regimens” (priority 2021, dated 2025).

Tests used:
[1] = design: species or system human; settings: human, in vivo
Description: Accumulated data have shown that maribavir is metabolized primarily in the liver, and renal clearance is a minor route (representing less than 5 percent). VP 44469 (N-dealkylated Maribavir) was the principal metabolite of maribavir in both urine and feces. In plasma, unchanged maribavir and VP 44469 represented approximately 69% and 9.8% of total radioactivity, respectively. The hepatic metabolism of maribavir was primarily driven by cytochrome P450s. CYP3A4 and CYP1A2 were responsible for 70 to 85% and 15 to 30% of the CYP-driven pathways, respectively. Glucuronidation accounted for less than 20% of metabolism.
(§1) Distribution models evaluated included a full PBPK model and a minimal PBPK model, both of which consider liver and intestinal metabolism. Mass balance data from the [^14C] ADME study indicated a fraction absorbed of 0.83 or greater following oral administration of 400 mg dose of maribavir. Absorption models evaluated included a simple first-order absorption model and a more mechanistic “Advanced Dissolution Absorption and Metabolism” (ADAM) model.

[2] = PBPK simulation of maribavir with rifampicin; design: species or system human
Method: A comparison of observed and predicted plasma concentrations of maribavir following multiple oral doses of 400 mg administered in the absence of rifampicin and during concurrent treatment with rifampicin was performed. Subjects took maribavir 400 mg BID on Days 1-3 (5 doses), then rifampicin 600 mg QD on Days 4 through 12, followed by both maribavir 400 mg (BID) and rifampicin 600 mg QD on Days 13 and 14, with final doses of maribavir and rifampicin on the morning of Day 15. […]

CYP3A4 mRNA = test: CYP induction (mRNA, qPCR) in fresh human hepatocytes; assay type: in vitro ADME
Method: Fresh human hepatocytes were treated with culture medium with maribavir concentrations of 36 μM, 144 μM, and 480 μM.
Positive controls were 50 μM omeprazole (CYP1A2), 1 mM phenobarbital (CYP2B6), and 50 μM rifampicin (CYP3A).
Incubation was conducted at 37° C. for 72 hours, with daily replacement of medium with compound. Total RNA was isolated, and cDNA was synthesized from up to 1 μg of total isolated RNA. Analysis of CYP expression was performed using qPCR with CYP-specific probes.
Half maximal effective concentration (EC50) and maximum effect (Emax) values for CYP3A4 mRNA induction were further determined by a concentration-response curve in three donors with maribavir at a concentration between 0-100 μM.

[3] = Phase 2 studies for treatment of CMV infection/diseases: safety/tolerability; assay type: in vivo, human; settings: doses up to 1200 mg BID
[4] = PBPK model simulation of maribavir alone; design: species or system human
Method: A Physiologically-based Pharmacokinetic (“PBPK”) model based on prior in vitro and in vivo information on the metabolism and kinetics of maribavir was constructed with the aim of predicting plasma concentration-time profiles of maribavir and to evaluate the likely impact of coadministration of CYP3A4 inhibitors and inducers on the kinetics of maribavir in healthy subjects.
(§2) A combination of in vitro data and clinical pharmacokinetic data obtained following a single dose of 400 mg maribavir were used to develop the PBPK model. […] The Cmax was marginally under predicted, which could be expected because the PBPK model was optimized for better prediction of C12h.
as §1
(§3) A comparison of observed and predicted plasma concentrations of maribavir following single oral doses of 800 mg and 1600 mg to healthy patients […]. […] The simulated and observed maribavir concentrations were in reasonable agreement.
(§4) A comparison of observed and predicted plasma concentrations of maribavir following multiple oral 400 mg BID doses of maribavir was performed. […] The simulated and observed maribavir concentrations were in reasonable agreement.

clinical = settings: human, in vivo; for AUC(0-t): AUC(0-12 h)
Method: as §2, §3, §4

P-gp = biological target: T1, P-gp (Homo sapiens, UniProt P08183); test: Inhibition of P-gp efflux of digoxin in cultured Caco-2 cells; assay type: in vitro ADME
T1 construct: P-gp efflux of digoxin (as determined by the corrected efflux ratio) in cultured Caco-2 cells; endogenous in cells; host or cells: Caco-2 cells
T1 sequence (P08183 whole entry): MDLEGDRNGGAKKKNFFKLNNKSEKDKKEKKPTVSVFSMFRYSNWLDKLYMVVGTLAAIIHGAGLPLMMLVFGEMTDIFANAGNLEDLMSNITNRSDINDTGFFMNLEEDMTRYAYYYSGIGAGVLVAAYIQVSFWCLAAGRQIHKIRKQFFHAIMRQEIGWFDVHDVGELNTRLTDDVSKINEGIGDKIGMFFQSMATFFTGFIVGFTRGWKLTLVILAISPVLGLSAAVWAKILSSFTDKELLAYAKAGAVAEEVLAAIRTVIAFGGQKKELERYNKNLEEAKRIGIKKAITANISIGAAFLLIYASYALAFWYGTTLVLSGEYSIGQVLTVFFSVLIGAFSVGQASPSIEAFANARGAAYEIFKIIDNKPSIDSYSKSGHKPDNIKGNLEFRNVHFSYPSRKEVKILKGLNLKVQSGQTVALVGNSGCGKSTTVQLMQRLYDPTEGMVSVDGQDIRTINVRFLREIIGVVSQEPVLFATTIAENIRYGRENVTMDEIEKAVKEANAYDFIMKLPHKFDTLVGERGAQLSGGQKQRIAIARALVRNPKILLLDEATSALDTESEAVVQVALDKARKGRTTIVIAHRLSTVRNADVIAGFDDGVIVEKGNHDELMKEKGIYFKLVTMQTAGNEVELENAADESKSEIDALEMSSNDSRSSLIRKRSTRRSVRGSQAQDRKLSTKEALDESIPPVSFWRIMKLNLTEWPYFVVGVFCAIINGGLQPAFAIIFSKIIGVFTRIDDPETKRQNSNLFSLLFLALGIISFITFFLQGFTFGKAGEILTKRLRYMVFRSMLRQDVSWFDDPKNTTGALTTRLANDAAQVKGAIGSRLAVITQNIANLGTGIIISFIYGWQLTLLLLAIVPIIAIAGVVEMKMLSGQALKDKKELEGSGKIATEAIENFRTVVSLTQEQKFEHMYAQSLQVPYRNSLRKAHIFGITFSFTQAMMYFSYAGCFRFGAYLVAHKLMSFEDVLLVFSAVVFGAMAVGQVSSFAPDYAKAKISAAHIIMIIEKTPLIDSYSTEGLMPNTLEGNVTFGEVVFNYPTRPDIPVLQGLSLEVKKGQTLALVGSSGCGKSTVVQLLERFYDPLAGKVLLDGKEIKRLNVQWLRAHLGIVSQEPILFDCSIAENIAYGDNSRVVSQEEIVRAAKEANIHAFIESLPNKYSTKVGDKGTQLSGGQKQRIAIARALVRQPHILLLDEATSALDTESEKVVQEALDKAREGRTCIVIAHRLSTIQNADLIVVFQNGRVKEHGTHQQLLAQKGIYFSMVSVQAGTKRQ
Method: FIG. 4. Estimation of IC50 of maribavir on P-gp efflux of digoxin (as determined by the corrected efflux ratio) in cultured Caco-2 cells. IC50, half maximal inhibitory concentration; P-gp, P-glycoprotein.
Drug-drug interaction potential of maribavir with cytochrome P450 enzymes and P-glycoprotein (P-gp) was thoroughly characterized. The reversible inhibition, time-dependent inhibition, and induction of CYPs were evaluated in the presence of maribavir using human cells or human-derived cell lines. The inhibition of P-gp was also assessed.

[5] = design: species or system human; settings: in vivo
Description: It can be taken with or without food, and no dose adjustment is needed in patients with mild-to-moderate hepatic impairment or renal impairment. Maribavir has a low drug-interaction potential and there are minimal dose adjustments required (for example, only when taken concurrently with CYP3A4 inducers or certain immunosuppressants) and there are no effects on QT interval.

[6] = maribavir 400 mg BID + rifampicin 600 mg QD
[7] = maribavir 400 mg BID with/without rifampicin 600 mg QD
[8] = maribavir 400 mg BID alone (Table 7A)
[9] = maribavir 400 mg BID, 5 doses (Table 5A)
[10] = maribavir 400 mg single dose alone (Table 6A)
[11] = maribavir 400 mg single oral dose
[12] = maribavir 800 mg single oral dose
[13] = maribavir 1600 mg single oral dose
[14] = 400 mg, observed Geometric mean

For `CC(C)Nc1nc2cc(Cl)c(Cl)cc2n1[C@H]1O[C@@H](CO)[C@H](O)[C@@H]1O` [maribavir, (2S,3S,4R,5S)-2-(5,6-dichloro-2-(isopropylamino)-1H-benzo[d]imidazol-1-yl)-5-(hydroxymethyl)tetrahydrofuran-3,4-diol], the “contribution of CYP1A2 to the CYP-driven pathways” value [1] was 15-30%, the “contribution of CYP3A4 to the CYP-driven pathways” value [1] was 70-85% and the “share of metabolism by glucuronidation” value [1] was “less than 20%”. For the same compound, the “share of total radioactivity in plasma” value [1] was “approximately 69%”, the “AUC(0-12 h), RATIO GEOMETRIC MEAN PREDICTED/OBSERVED” value [2, 6] was 0.88 and the “AUC(0-12 h), RATIO MEAN PREDICTED/OBSERVED” value [2, 6] was 1.00. The “C12 h, RATIO GEOMETRIC MEAN PREDICTED/OBSERVED” value [2, 6] was 0.22, the “C12 h, RATIO MEAN PREDICTED/OBSERVED” value [2, 6] was 0.83 and the “Cmax, RATIO GEOMETRIC MEAN PREDICTED/OBSERVED” value [2, 6] was 0.75. For the same compound, the “Cmax, RATIO MEAN PREDICTED/OBSERVED” value [2, 6] was 0.78, the “Ratio AUC(0-12 h), RATIO GEOMETRIC MEAN PREDICTED/OBSERVED” value [2, 7] was 0.85 and the “Ratio AUC(0-12 h), RATIO MEAN PREDICTED/OBSERVED” value [2, 7] was 0.91. For the same compound, the “Ratio C12 h, RATIO GEOMETRIC MEAN PREDICTED/OBSERVED” value [2, 7] was 0.24, the “Ratio C12 h, RATIO MEAN PREDICTED/OBSERVED” value [2, 7] was 0.56 and the “Ratio Cmax, RATIO GEOMETRIC MEAN PREDICTED/OBSERVED” value [2, 7] was 0.89. For the same compound, the “Ratio Cmax, RATIO MEAN PREDICTED/OBSERVED” value [2, 7] was 0.87, the “fold increase in CYP3A4 mRNA induction” value (CYP3A4 mRNA; 36 μM maribavir, human hepatocytes) was “greater than 14 fold” and the EC50 at 72 h (CYP3A4 mRNA; human) was greater than 5 µM. For the same compound, the “CYP3A4 mRNA induction, % of positive control (rifampicin) levels” value (CYP3A4 mRNA; human, hepatocytes, 72 h, 36 μM) was “greater than 30%”, the safety/tolerability profile [3] was “no limiting toxicity” and the “AUC(0-12 h), RATIO GEOMETRIC MEAN PREDICTED/OBSERVED” value [4, 8] was 1.03. The “AUC(0-12 h), RATIO MEAN PREDICTED/OBSERVED” value [4, 8] was 1.06, the “C12 h, RATIO GEOMETRIC MEAN PREDICTED/OBSERVED” value [4, 8] was 0.92 and the “C12 h, RATIO MEAN PREDICTED/OBSERVED” value [4, 8] was 1.14. For the same compound, the “Cmax, RATIO GEOMETRIC MEAN PREDICTED/OBSERVED” value [4, 8] was 0.85, the “Cmax, RATIO MEAN PREDICTED/OBSERVED” value [4, 8] was 0.84 and the “AUC(0-∞), RATIO MEAN PREDICTED/OBSERVED” value [4, 9] was 1.07. For the same compound, the “C12 h, RATIO MEAN PREDICTED/OBSERVED” value [4, 9] was 1.18, the “Cmax, RATIO MEAN PREDICTED/OBSERVED” value [4, 9] was 0.85 and the “AUC(0-∞), GEOMEAN RATIO PREDICTED/OBSERVED” value [4, 10] was 0.78. The “AUC(0-∞), MEAN RATIO PREDICTED/OBSERVED” value [4, 10] was 0.79, the “Cmax, GEOMEAN RATIO PREDICTED/OBSERVED” value [4, 10] was 0.61 and the “Cmax, MEAN RATIO PREDICTED/OBSERVED” value [4, 10] was 0.62. For the same compound, the “AUC(0-∞), RATIO MEAN PREDICTED/OBSERVED” value [4, 11] was 1.00, the “Cmax, RATIO MEAN PREDICTED/OBSERVED” value [4, 11] was 0.72 and the “AUC(0-∞), RATIO MEAN PREDICTED/OBSERVED” value [4, 12] was 1.07. For the same compound, the “Cmax, RATIO MEAN PREDICTED/OBSERVED” value [4, 12] was 0.91, the “AUC(0-∞), RATIO MEAN PREDICTED/OBSERVED” value [4, 13] was 0.90 and the “Cmax, RATIO MEAN PREDICTED/OBSERVED” value [4, 13] was 0.99. The “AUC(0-∞), observed Mean” value (clinical; 400 mg) was 126000 ng·h/mL, the AUC(0-t) (clinical; 400 mg, observed) was 86600 ng·h/mL and the AUC(0-t) (clinical; 400 mg, observed Mean) was 89900 ng·h/mL. It also gave an AUC(0-inf) (clinical; [14]) of 119000 ng·h/mL, an AUC(0-inf) (clinical; 400 mg, observed Mean) of 89900 ng·h/mL and a Cmax (clinical; [14]) of 19400 ng/mL. The Cmax (clinical; 400 mg, observed Mean) was 16900 ng/mL, the Cmax (clinical; 400 mg, observed, row headed % CV) was 16200 ng/mL and the AUC(0-inf) (clinical; po, 400 mg, observed Mean) was 97800 ng·h/mL. It also gave a Cmax (clinical; po, 400 mg, observed Mean) of 16700 ng/mL, an AUC(0-inf) (clinical; po, 800 mg, observed Mean) of 183000 ng·h/mL and a Cmax (clinical; po, 800 mg, observed Mean) of 26400 ng/mL. It also gave an AUC(0-inf) (clinical; po, 1600 mg, observed Mean) of 437000 ng·h/mL, a Cmax (clinical; po, 1600 mg, observed Mean) of 48800 ng/mL and an IC50 (P-gp) of 33.8 µM. The “effects on QT interval” value [5] was “no effects”.
